Measured values as given in PMC10361207, “Cannabinoid and Opioid Receptor Affinity and Modulation of Cancer-Related Signaling Pathways of Machaeriols and Machaeridiols from Machaerium Pers” (Molecules, 2023).
≈ marks a conversion by molar mass, not a printed value. Entries after “also recorded” stand apart in the source; their conditions may differ.

Experiments:
[1] = tested on: Stat3; test: Luciferase reporter assay, Stat3, HeLa; format: cell-based, human; details: Homo sapiens; HeLa cells; inducer IL6; dash: not inhibited by more than 40% at 50 µmol/L
Method: (§1) Hela cells (or T98G cells) from ATCC were plated in white opaque 384-well plates at a density of 4300 cells/well in 30 µL of growth medium (DMEM with 10% FBS and 1% Pen/Strep). The next day, the medium was aspirated and replaced with DMEM containing 1% FBS. The cells were transfected with respective plasmids using X-tremeGENE HP DNA transfection reagent (Roche). After 24 h of transfection, the test agents were added to the transfected cells, followed 30 min later by an inducing agent: interleukin 6 (IL-6) for Stat3, TGF-β for Smad, m-wnt3a for Wnt and PMA for AP-1, NF-κB, E2F, Myc, ETS, Notch and Hedgehog. No inducer was added for FoXO and pTK. After 4 h or 6 h of induction, the cells were lysed via the addition of the One-Glo luciferase assay system (Promega; Madison, WI). The light output was detected in a GloMax®-Multi+ Detection System with Instinct® Software (Promega E 8051). This luciferase assay determines if the test agent is able to inhibit the activation of cancer-related signaling pathways. In the case of FoxO, the enhanced luciferase activity via the test agent was assessed.

[2] = tested on: NF-κB; test: Luciferase reporter assay, NF-κB, HeLa; format: cell-based; details: Homo sapiens; HeLa cells; inducer PMA; dash: not inhibited by more than 40% at 50 µmol/L
Method: as §1

[3] = target: T1, CB2 receptor (Homo sapiens, UniProt P34972); test: Competitive radioligand binding assay, CB2; details: for Percent displacement, CB2: 10 μM, [3H]-CP55,940; for Ki: * tested up to solubility limit, conc. at 33.3 μM and above precipitated, read-out: CB2 Ki ± SEM
T1 construct: expressed in transfected cells; host or cells: HEK293 (ATCC), stably transfected; membranes
Method: (§2) HEK293 cells stably transfected with δ, κ and μ opioid subtypes were a generous gift from Roth Laboratories (University of North Carolina at Chapel Hill, N.C., USA). CB and opioid cells were maintained as previously described.
(§3) Membranes were purified by first washing the cells with cold PBS and scraping the cells into cold 50 mM Tris-HCl, pH 7.4 buffer, which was centrifuged at 5200× g for 10 min at 4 °C; next, the supernatant was discarded, and the pellet was washed with more Tris-HCl buffer, homogenized via a Sonic Dismembrator (Fisher Scientific, Pittsburgh, PA, USA) and then centrifuged at 24,000× g for 40 min at 4 °C. Finally, the pellet was re-suspended in cold 50 mM Tris-HCl buffer, aliquoted into 2 mL vials and stored at −80 °C. The total membrane protein concentration was measured using a Pierce BCA Protein Assay Kit (Thermo Scientific, Rockford, IL, USA) as per the manufacturer’s protocol.
(§4) Cannabinoid and opioid competitive radioligand binding assays were performed as previously described. Saturation experiments were performed for all the receptors to determine the receptor concentration and radioligand dissociation constant (Kd) for the membrane. Percent displacements were evaluated for all the cannabinoid and opioid subtypes with a triplicate of a fixed concentration (10 µg/mL for extracts and fractions and 10 μM for purified compounds). […] Control/test compounds were dissolved in DMSO at 10 μg/mL for extracts and fractions and 10 μM for purified compounds. […] The percent displacement was calculated to represent the ability of the samples to displace the radioligand binding for a given cannabinoid or opioid receptor subtype.
(§5) The percent displacement was calculated as follows: 100−binding of compound−nonspecific binding/specific binding×100
(§6) The competitive binding assays were performed using 12 serial dilutions of each compound ranging from 0.002 to 300 μM (control compounds were serially diluted from 10 μM to 0.06 nM). The cannabinoid assays were incubated for 90 min at 37 °C with gentle agitation. The opioid assays were incubated for 60 min at room temperature. Bound radioligands were collected on GF/C (cannabinoid) or GF/B plates (opioid) and washed 10 times with ice-cold 50 mM Tris-HCl (pH 7.4)/0.1% BSA (cannabinoid) or ice-cold 50 mM Tris-HCl (pH 7.4) (opioid). Radiodetection was measured with 50 µL (cannabinoid) or 25 µL (opioid) of MicroScint^TM-20 on a TopCount NXT HTS Microplate Scintillation Counter (PerkinElmer, Waltham, MA, USA). The IC50 and Ki values were calculated via a non-linear curve fit model using GraphPad Prism 5.0 software (GraphPad Software, Inc., San Diego, CA, USA). Each compound was tested in triplicate unless stated otherwise.

[4] = tested on: Notch; test: Luciferase reporter assay, Notch, HeLa; format: cell-based; details: Homo sapiens; HeLa cells; inducer PMA; dash: not inhibited by more than 40% at 50 µmol/L
Method: as §1

[5] = tested on: Myc; test: Luciferase reporter assay, Myc, HeLa; format: cell-based; details: Homo sapiens; HeLa cells; inducer PMA; dash: not inhibited by more than 40% at 50 µmol/L
Method: as §1

[6] = tested on: SK-MEL, KB, BT-549, SK-OV-3, HeLa, LLC-PK1 and Vero cells; test: Cytotoxicity, summary over the cell line panel; format: cell-based; details: highest tested concentration of 50 µg/mL; most of the cells
Method: (§7) In vitro cytotoxic activity was determined against five human cancer cell lines—malignant melanoma (SK-MEL), epidermal carcinoma oral (KB), ductal carcinoma breast (BT-549), ovary carcinoma (SKOV-3) and cervical (HeLa) cancer cells—and two non-cancerous kidney cell lines (LLC-PK1 and Vero). All cell lines were obtained from the American Type Culture Collection (ATCC, Rockville, MD, USA). Each assay was performed in 96-well tissue culture-treated microplates. The cells were seeded at a density of 25,000 cells/well and incubated for 24 h. Samples at different concentrations were added, and the cells were incubated again for 48 h. At the end of the incubation, the cell viability was determined using Neutral Red dye according to a modification of the procedure used by Borenfreund et al.. IC50 values were determined from dose–response curves of the percent growth inhibition against test concentrations. Doxorubicin was used as a positive control, while DMSO was used as the negative (vehicle) control.

[7] = Cytotoxicity, Neutral Red, SK-MEL; format: cell-based; details: human, SK-MEL malignant melanoma cells, Na = not active up to 50 µg/mL
Method: as §7

[8] = tested on: Wnt; test: Luciferase reporter assay, Wnt, HeLa; format: cell-based; details: Homo sapiens; HeLa cells; inducer m-wnt3a; dash: not inhibited by more than 40% at 50 µmol/L
Method: as §1

[9] = tested on: AP-1; test: Luciferase reporter assay, AP-1, HeLa; format: cell-based, human; details: Homo sapiens, read-out: IC50, Ap-1 (PMA)
Method: as §1

[10] = target: T2, δ opioid receptor (Homo sapiens, UniProt P41143); test: Competitive radioligand binding assay, δ opioid; details: for inhibition at 10 µM: [3H]-enkephalin (DPDPE), read-out: Percent displacement, Δ; for Ki: NA = not active, read-out: Δ Ki ± SEM
T2 construct: host or cells: HEK293, stably transfected; membranes
Method: as §2, §3, §4, §5, §6

[11] = tested on: ETS; test: Luciferase reporter assay, ETS, HeLa; format: cell-based, human; details: Homo sapiens; HeLa cells; inducer PMA; dash: not inhibited by more than 40% at 50 µmol/L
Method: as §1

[12] = tested on: Hedgehog; test: Luciferase reporter assay, Hedgehog, HeLa; format: cell-based, human; details: Homo sapiens; HeLa cells; inducer PMA; dash: not inhibited by more than 40% at 50 µmol/L
Method: as §1

[13] = tested on: cannabinoid receptor 1 (CB1 receptor); details: earlier studies; cited from earlier work
[14] = tested on: E2F; test: Luciferase reporter assay, E2F, HeLa; format: cell-based, human; details: Homo sapiens, HeLa, read-out: IC50, E2F (PMA)
Method: as §1

[15] = tested on: Smad2/3; test: Luciferase reporter assay, Smad2/3, HeLa; format: cell-based, human; details: Homo sapiens; HeLa cells; inducer TGF-beta; dash: not inhibited by more than 40% at 50 µmol/L
Method: as §1

[16] = target: T3, μ opioid receptor (Homo sapiens, UniProt P35372); test: biochemical; format: binding; details: for Percent displacement, µ: 10 μM, [3H]-DAMGO; for Ki: NA = not active, read-out: μ Ki ± SEM
T3 construct: host or cells: HEK293, stably transfected; membranes
Method: as §2, §3, §4, §5, §6

[17] = tested on: FoxO; test: Luciferase reporter assay, FoxO, HeLa; format: cell-based; details: Homo sapiens; HeLa cells; no inducer; dash: no activity detected; read-out: IC50, FoxO (None)
Method: as §1

[18] = Cytotoxicity, Neutral Red, BT-549; format: cell-based; details: human, BT-549 breast ductal carcinoma cells, Na = not active up to 50 µg/mL
Method: as §7

[19] = Cytotoxicity, Neutral Red, KB; format: cell-based; details: human, KB epidermal carcinoma (oral) cells, Na = not active up to 50 µg/mL
Method: as §7

[20] = Solubility in aqueous assay buffer; details: aqueous buffer of the radioligand binding assay
[21] = target: T4, CB1 receptor (Homo sapiens, UniProt P21554); test: Competitive radioligand binding assay, CB1; details: for Percent displacement, CB1: 10 μM, [3H]-CP55,940
T4 construct: expressed in transfected cells; host or cells: HEK293 (ATCC), stably transfected; membranes
Method: as §2, §3, §4, §5, §6

T3 sequence (P35372 whole entry): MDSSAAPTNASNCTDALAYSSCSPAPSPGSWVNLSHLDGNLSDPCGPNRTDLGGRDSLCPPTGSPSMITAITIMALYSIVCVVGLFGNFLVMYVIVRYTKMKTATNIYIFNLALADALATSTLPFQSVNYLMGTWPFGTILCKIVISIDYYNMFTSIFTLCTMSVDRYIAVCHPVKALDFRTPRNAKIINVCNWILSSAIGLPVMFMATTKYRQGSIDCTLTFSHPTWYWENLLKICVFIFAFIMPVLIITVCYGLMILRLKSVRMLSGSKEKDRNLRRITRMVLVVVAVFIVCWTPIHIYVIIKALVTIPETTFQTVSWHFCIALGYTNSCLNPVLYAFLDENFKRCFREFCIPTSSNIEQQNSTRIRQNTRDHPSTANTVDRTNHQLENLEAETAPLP
T1 sequence (P34972 whole entry): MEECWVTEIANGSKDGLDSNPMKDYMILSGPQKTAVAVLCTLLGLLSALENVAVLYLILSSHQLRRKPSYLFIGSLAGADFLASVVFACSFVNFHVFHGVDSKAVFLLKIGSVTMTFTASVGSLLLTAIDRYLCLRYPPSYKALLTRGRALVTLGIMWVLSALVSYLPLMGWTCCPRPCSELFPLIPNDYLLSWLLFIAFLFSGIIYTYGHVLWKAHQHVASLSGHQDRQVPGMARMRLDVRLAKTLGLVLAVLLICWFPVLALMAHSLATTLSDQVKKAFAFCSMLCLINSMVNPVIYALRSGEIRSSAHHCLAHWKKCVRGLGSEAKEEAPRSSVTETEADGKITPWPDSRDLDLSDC
T4 sequence (P21554 whole entry): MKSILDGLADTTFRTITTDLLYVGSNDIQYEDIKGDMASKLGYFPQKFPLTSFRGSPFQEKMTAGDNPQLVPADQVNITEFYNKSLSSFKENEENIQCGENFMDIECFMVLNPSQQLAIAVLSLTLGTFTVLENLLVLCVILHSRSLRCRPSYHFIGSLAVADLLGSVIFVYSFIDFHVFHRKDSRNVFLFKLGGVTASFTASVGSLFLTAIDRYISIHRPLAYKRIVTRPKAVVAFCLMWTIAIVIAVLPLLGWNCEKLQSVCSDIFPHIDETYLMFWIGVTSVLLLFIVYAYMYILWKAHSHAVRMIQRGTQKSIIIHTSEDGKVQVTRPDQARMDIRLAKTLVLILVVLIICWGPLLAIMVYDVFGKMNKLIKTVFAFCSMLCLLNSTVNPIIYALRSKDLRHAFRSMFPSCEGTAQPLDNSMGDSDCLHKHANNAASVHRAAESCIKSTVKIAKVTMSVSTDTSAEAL
T2 sequence (P41143 whole entry): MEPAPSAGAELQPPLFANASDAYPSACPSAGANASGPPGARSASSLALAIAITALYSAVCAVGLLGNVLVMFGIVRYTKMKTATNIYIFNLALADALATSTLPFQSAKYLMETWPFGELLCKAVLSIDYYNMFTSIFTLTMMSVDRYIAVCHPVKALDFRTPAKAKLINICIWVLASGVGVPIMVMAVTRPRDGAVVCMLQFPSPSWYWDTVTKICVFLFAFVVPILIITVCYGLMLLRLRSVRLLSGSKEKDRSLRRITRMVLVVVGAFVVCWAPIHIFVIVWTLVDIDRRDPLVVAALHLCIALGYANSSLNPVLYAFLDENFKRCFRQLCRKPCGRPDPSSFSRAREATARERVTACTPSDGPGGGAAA

| Structure (SMILES) | IC50 [1] | IC50 [2] | Percent displacement, CB2 [3] | IC50 [4] | IC50 [5] | Cytotoxicity (in words) [6] | IC50 at 48 h [7] | IC50 [8] | IC50 [9] | inhibition at 10 µM [10] | IC50 [11] | IC50 [12] | Affinity for CB1 (in words) [13] | IC50 [14] | IC50 [15] | Percent displacement, µ [16] | IC50 [17] | IC50 at 48 h [18] | Ki [3] | Percent displacement, CB1 [21] | also measured |
| --- | --- | --- | --- | --- | --- | --- | --- | --- | --- | --- | --- | --- | --- | --- | --- | --- | --- | --- | --- | --- | --- |
| C[C@H]1CC[C@H]2[C@H](C1)c1c(O)cc(-c3cc4ccccc4o3)cc1OC2(C)C [compound 2, machaeriol B] | 11.3 µM | 8.4 µM | 13.7% | 7.3 µM | 7.7 µM | inactive | > 50 mg/L | 9.1 µM | 10 µM | 61.7% | 9.5 µM | 6.9 µM | insignificant affinity; also recorded: did not show any affinity | 8.8 µM | 11 µM | 37.6% | > 50 µM |  |  |  |  |
| C=C(C)[C@H]1CC[C@H](C)C[C@@H]1c1c(O)cc(-c2cc3ccccc3o2)cc1O [compound 7, machaeridiol C] | 11.2 µM | 2 µM | 57.9% | 12 µM | 6.8 µM | inactive | > 50 mg/L | > 50 µM | 6.7 µM | 26.6% | 7.2 µM | 8.8 µM |  | 8.7 µM | 2.5 µM | 31.7% | > 50 µM | 47 mg/L (≈ 130 µM) | > 1.11 µM |  | Δ pKi [10]: 4.91; Ki [10]: 12.2 ± 1.19 µM; IC50 at 48 h [19]: > 50 mg/L; solubility [20]: < 33.3 µM; Ki [16]: 4.01 ± 0.65 µM |
| C=C(C)[C@H]1CC[C@H](C)C[C@@H]1c1c(O)cc(/C=C/c2ccccc2)cc1O [compound 5, machaeridiol A] | 10.5 µM | 8.1 µM | 65.4% | > 50 µM | 9.5 µM | inactive | > 50 mg/L | 3.5 µM | 11 µM | 43.3% | 11.8 µM | 11 µM |  | 10 µM | 4.5 µM | 45.6% | > 50 µM | > 50 mg/L | > 1.77 µM | 7.8% | Ki [10]: 9.41 ± 1.02 µM; IC50 at 48 h [19]: > 50 mg/L; solubility [20]: < 33.3 µM; Ki [16]: 16.8 ± 3.31 µM |
| C[C@@H]1C[C@@H]2c3c(O)cc(-c4cc5ccccc5o4)cc3OC(C)(C)[C@H]2C[C@H]1O [compound 4, machaeriol D] | 22 µM | 20 µM | 81.5% | 25 µM | 18 µM |  |  | 20 µM | 21 µM | 28.2% | 25 µM | 21 µM |  | 24 µM | 11 µM | 16.8% | > 50 µM |  | > 1.3 µM | 4.5% | Affinity for CB1 receptor (in words) ([21]; receptor displacement assay): little or no affinity |
| C[C@H]1CC[C@H]2[C@H](C1)c1c(O)cc(/C=C/c3ccccc3)cc1OC2(C)C [compound 1, machaeriol A] | 14 µM | 10.7 µM | 24.4% | 7 µM | 8.5 µM |  |  | 11.9 µM | 12 µM | 1.8% | 8.5 µM | 8.2 µM | insignificant affinity; also recorded: did not show any affinity | 11 µM | 13.7 µM | 52.9% | > 50 µM |  |  | 18.4% |  |
